SMILES strings stand for the structures.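 Where inhibition never reached the appropriate level, the endpoint shown equals the highest concentration tested. Otherwise, values were interpolated linearly from a five-concentration, 48-hour dose response in 96-well plates. GI50 is the concentration that inhibits growth by half.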 Calls of active or inactive are those of the source. Cut-off read from the data, not from the text of the source: active = GI50 up to about 1.1 µM and inactive = higher.

Some test systems named below: SK-MEL-28; HOP-92; HCT-116; DU-145; HCT-15; NCI/ADR-RES; PC-3; SNB-19; SK-MEL-5; NCI-H226; SF-539; SF-268; BT-549; K562; UACC-257; SK-OV-3; 786-0; OVCAR-8; OVCAR-4; MDA-N.
Test in all cases: NCI anticancer screen, dose series, 48 h

On to `C=Cn1c([N+](=O)[O-])cnc1/C=C/c1ccc(C(=O)OCCN2CCOCC2)cc1`, for which the GI50 with SK-MEL-28 was > 100 µM (inactive); in the experiment on HOP-92 it was > 100 µM (inactive); in the experiment on HCT-116, > 100 µM (inactive); with DU-145, > 100 µM (inactive); in the experiment with HCT-15 it was > 100 µM; in the experiment with NCI/ADR-RES it was > 100 µM (inactive). In addition, the GI50 with PC-3 is > 100 µM (inactive); in the experiment with SNB-19, > 100 µM (inactive); in the experiment with SK-MEL-5, 51.9 µM (inactive); in the experiment on NCI-H226 it was > 100 µM (inactive); in the experiment with SF-539, > 100 µM (inactive); with SF-268 it was > 100 µM (inactive). Further, the GI50 with BT-549, in the experiment on K562, in the experiment on UACC-257, with SK-OV-3, in the experiment on 786-0 and in the experiment on OVCAR-8 was > 100 µM (inactive) throughout. Also, the GI50 in the experiment with OVCAR-4 is > 100 µM (inactive).

Turning to `COC1C(O)C(C)OC(O[C@H]2CC[C@@]3(C)C(CC[C@@H]4[C@@H]3CC[C@]3(C)[C@@H](C(C)OC5OC(CO)C(O)C(O)C5O)CC[C@]43O)C2)C1O` (stereo not given in full), the GI50 in the experiment with SK-MEL-28 was > 25 µM (inactive); in the experiment with HOP-92 it was > 25 µM (inactive); with HCT-116, > 25 µM (inactive); in the experiment on HCT-15 it was > 25 µM; in the experiment with NCI/ADR-RES, > 25 µM (inactive); with MDA-N, > 25 µM (inactive). In addition, the GI50 in the experiment with PC-3, with SNB-19, with SK-MEL-5, in the experiment on NCI-H226, in the experiment on SF-539 and with SF-268 was > 25 µM (inactive) each time. Besides, the GI50 with K562, in the experiment on UACC-257, in the experiment on SK-OV-3, in the experiment with 786-0, in the experiment with OVCAR-8 and in the experiment with OVCAR-4 was > 25 µM (inactive) throughout.

For the molecule `c1ccc(CSC(SCc2ccccc2)c2ccc3c(c2)OCO3)cc1`, the GI50 in the experiment on SK-MEL-28 was > 10 µM (inactive); with HOP-92, > 10 µM (inactive); with HCT-116 it was > 10 µM (inactive); in the experiment with DU-145, > 10 µM (inactive); in the experiment on HCT-15, > 10 µM; in the experiment with NCI/ADR-RES, > 10 µM (inactive). Further, the GI50 with MDA-N, with PC-3, with SNB-19, with SK-MEL-5, in the experiment with NCI-H226 and in the experiment with SF-539 was > 10 µM (inactive) each time. The GI50 in the experiment on SF-268 is > 10 µM (inactive); in the experiment with K562 it was > 10 µM (inactive); in the experiment with UACC-257, > 10 µM (inactive); in the experiment on SK-OV-3, 6.44 µM (inactive); in the experiment on 786-0 it was > 10 µM (inactive); in the experiment on OVCAR-8, > 10 µM (inactive). In the experiment on OVCAR-4, the GI50 is > 10 µM (inactive).

With `N#Cc1ccccc1C#C/C=C\C#Cc1ccccn1`, the GI50 was 17.5 µM (inactive) in the experiment on SK-MEL-28; 26.9 µM (inactive) in the experiment on HOP-92; 12 µM (inactive) in the experiment with HCT-116; 28.6 µM (inactive) with DU-145; 18.8 µM with HCT-15; 16.6 µM (inactive) with NCI/ADR-RES. Moreover, the GI50 is 13.7 µM (inactive) with PC-3; 25.9 µM (inactive) with SNB-19; 2.99 µM (inactive) in the experiment on SK-MEL-5; 20.5 µM (inactive) with SF-539; 16.1 µM (inactive) with SF-268; 13.7 µM (inactive) in the experiment on UACC-257. In addition, the GI50 in the experiment with SK-OV-3 was 25.1 µM (inactive); in the experiment on 786-0, 20.3 µM (inactive); with OVCAR-8, 13.1 µM (inactive); in the experiment on OVCAR-4 it was 75.9 µM (inactive).

As to `CCCCCC(=O)NC(=S)Nc1nnn[nH]1`, the GI50 in the experiment with SK-MEL-28 is > 100 µM (inactive); with HOP-92, > 100 µM (inactive); in the experiment with HCT-116 it was > 100 µM (inactive); in the experiment on DU-145 it was > 100 µM (inactive); in the experiment with HCT-15, > 100 µM; in the experiment with MDA-N, > 100 µM (inactive). Also, the GI50 with PC-3, in the experiment with SNB-19, in the experiment with SK-MEL-5, in the experiment on SF-539, in the experiment with SF-268 and in the experiment on K562 was > 100 µM (inactive) each time. Moreover, the GI50 with UACC-257, in the experiment with SK-OV-3, in the experiment on 786-0 and in the experiment with OVCAR-4 was > 100 µM (inactive) each time.

For the molecule `O=C(Nc1nc(C23CC4CC(CC(C4)C2)C3)cs1)c1cc2cc(Cl)ccc2oc1=O`, the GI50 was > 100 µM (inactive) in the experiment with SK-MEL-28; > 100 µM (inactive) in the experiment with HOP-92; > 100 µM (inactive) in the experiment with HCT-116; > 100 µM (inactive) with DU-145; > 100 µM in the experiment with HCT-15; > 100 µM (inactive) in the experiment with NCI/ADR-RES. The GI50 in the experiment on MDA-N, in the experiment on PC-3, in the experiment with SNB-19, in the experiment with SK-MEL-5, with NCI-H226 and in the experiment with SF-539 was > 100 µM (inactive) in each case. Also, the GI50 with SF-268 is > 10 µM (inactive); in the experiment on K562, > 100 µM (inactive); in the experiment on UACC-257 it was > 100 µM (inactive); with 786-0, > 100 µM (inactive); with OVCAR-8, > 100 µM (inactive); with OVCAR-4 it was > 100 µM (inactive).

With `CC1=NC(C(C)C)C(=O)O1` (stereo not given), the GI50 in the experiment on SK-MEL-28 was > 100 µM (inactive); with HOP-92 it was > 100 µM (inactive); in the experiment on HCT-116 it was 18.5 µM (inactive); with HCT-15, 34.4 µM; in the experiment on SNB-19 it was > 100 µM (inactive); with SK-MEL-5, > 100 µM (inactive). Moreover, the GI50 in the experiment with NCI-H226 is > 100 µM (inactive); in the experiment with SF-539, > 100 µM (inactive); with SF-268 it was 45.1 µM (inactive); with K562, 61.1 µM (inactive); in the experiment with UACC-257 it was > 100 µM (inactive); with SK-OV-3, > 100 µM (inactive). The GI50 was 58.1 µM (inactive) in the experiment with 786-0, > 100 µM (inactive) in the experiment with OVCAR-8 and > 100 µM (inactive) with OVCAR-4.

`CCN1C(=O)/C(=C\c2coc3ccccc3c2=O)SC1=S`: the GI50 in the experiment with SK-MEL-28 was > 100 µM (inactive); with HOP-92, > 100 µM (inactive); with HCT-116 it was 64 µM (inactive); in the experiment with HCT-15, 39.1 µM; in the experiment with SNB-19, > 100 µM (inactive); in the experiment on SK-MEL-5, > 100 µM (inactive). The GI50 with NCI-H226 is > 100 µM (inactive); with SF-539 it was 32.8 µM (inactive); with SF-268, 66.8 µM (inactive); with K562, > 100 µM (inactive); in the experiment with UACC-257 it was > 100 µM (inactive); in the experiment with SK-OV-3, > 100 µM (inactive). In addition, the GI50 with 786-0 is 73.8 µM (inactive); with OVCAR-8 it was > 100 µM (inactive); with OVCAR-4, > 100 µM (inactive).

In the case of `CC(C)N1CN(c2ccccc2)C2(CCN(CCCC(=O)c3ccc(F)cc3)CC2)C1=O`, the GI50 is 18.3 µM (inactive) in the experiment with SK-MEL-28; 3.78 µM (inactive) in the experiment on HOP-92; 2.04 µM (inactive) with HCT-116; 3.18 µM (inactive) with DU-145; 6.31 µM with HCT-15; 5.55 µM (inactive) in the experiment on NCI/ADR-RES. Besides, the GI50 with MDA-N was 14.9 µM (inactive); in the experiment on PC-3 it was 18.9 µM (inactive); in the experiment on SNB-19, 12.7 µM (inactive); in the experiment on SK-MEL-5 it was 2.55 µM (inactive); with NCI-H226 it was 6.64 µM (inactive); in the experiment with SF-539 it was 9.55 µM (inactive). Besides, the GI50 in the experiment on SF-268 was 6.7 µM (inactive); in the experiment on K562, 25.6 µM (inactive); with UACC-257 it was 2.74 µM (inactive); in the experiment with SK-OV-3 it was 42 µM (inactive); in the experiment on 786-0, 6.9 µM (inactive); in the experiment on OVCAR-8 it was 24 µM (inactive). The GI50 with OVCAR-4 was 3.26 µM (inactive).

For the molecule `O=C(Cc1csc(N/N=C2\C(=O)Nc3ccccc32)n1)Nc1ccccc1`, the GI50 in the experiment on SK-MEL-28 is 21 µM (inactive); in the experiment with HOP-92, 35.7 µM (inactive); in the experiment on HCT-116 it was 21.4 µM (inactive); with DU-145 it was 24.9 µM (inactive); in the experiment on HCT-15, 38.5 µM; with NCI/ADR-RES, 20 µM (inactive). The GI50 with SNB-19 is 26.9 µM (inactive); in the experiment on SK-MEL-5 it was 15.3 µM (inactive); in the experiment on NCI-H226 it was 10 µM (inactive); in the experiment on SF-539, 26.4 µM (inactive); in the experiment on SF-268, 17.7 µM (inactive); in the experiment with BT-549 it was 41.7 µM (inactive). In addition, the GI50 with UACC-257 was 25 µM (inactive); in the experiment on SK-OV-3, 30.3 µM (inactive); in the experiment with 786-0 it was 17.7 µM (inactive); with OVCAR-8, 21.1 µM (inactive); in the experiment with OVCAR-4, 41.5 µM (inactive).

Take `COc1cc([C@H]2CC(=O)C[C@H](c3cc(OC)c(OC)c(OC)c3)C23C(=O)c2ccccc2C3=O)cc(OC)c1OC`: the GI50 with SK-MEL-28 was > 100 µM (inactive); in the experiment on HOP-92, 33.6 µM (inactive); in the experiment on HCT-116 it was 19.8 µM (inactive); in the experiment on DU-145, > 100 µM (inactive); in the experiment on HCT-15, > 100 µM; with NCI/ADR-RES, > 100 µM (inactive). Further, the GI50 was > 100 µM (inactive) with PC-3; > 100 µM (inactive) in the experiment on SNB-19; > 100 µM (inactive) in the experiment with SK-MEL-5; 54.5 µM (inactive) with NCI-H226; 45.7 µM (inactive) with SF-539; > 100 µM (inactive) with SF-268. Moreover, the GI50 in the experiment with BT-549 was 91.4 µM (inactive); in the experiment on K562 it was 44.2 µM (inactive); in the experiment with UACC-257 it was > 100 µM (inactive); in the experiment on SK-OV-3, 37.3 µM (inactive); in the experiment with 786-0 it was 77.6 µM (inactive); with OVCAR-8, 40 µM (inactive).

The record behind these values is ChEMBL document CHEMBL1201862, “PubChem BioAssay data set” (2004).
